Results as given in patent US11634447B2 (priority 2012, dated 2023).

System: bacterial strain LF82 binding to the glycoprotein BSA-(Mannose)3
Assay: Bacterial Binding Assay (BBA)
Format: cell-based, Escherichia coli
Conditions: read-out: Bacterial Binding Assay IC50, LF82/Luciferase strain binding to BSA-(Man)3 coated plates, luminescence
How it was run: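 Inhibition of LF82/luciferase E. coli adhesion is read as luminescence after washing off unbound cells. Compound and bacteria (10^7 per well) are co-incubated 40-75 min at room temperature on wells coated with 0.5-2 μg/mL BSA-(Man)3, with BSA-only wells as background; IC50 values derived.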

| SMILES | IC50 |
| --- | --- |
| O=C(c1c(C#C[C@H]2O[C@H](CO)[C@@H](O)[C@H](O)[C@@H]2O)ccc2c1C1(CCNCC1)c1cc(C#C[C@H]3O[C@H](CO)[C@@H](O)[C@H](O)[C@@H]3O)ccc1-2)[C@@H]1CCCO1 [Compound 242, [2,7-bis[2-[(2R,3S,4R,5S,6R)-3,4,5-trihydroxy-6-(hydroxymethyl)tetrahydropyran-2-yl]ethynyl]spiro[fluorene-9,4piperidine]-1yl]-[(2S)-tetrahydrofuran-2-yl]methanone] | 0.18 nM |
| OCc1cc(C#C[C@H]2O[C@H](CO)[C@@H](O)[C@H](O)[C@@H]2O)c(CO)cc1C#C[C@H]1O[C@H](CO)[C@@H](O)[C@H](O)[C@@H]1O [Compound 85, (2R,3S,4R,5S,6R)-2-[2-[2,5-bis(hydroxymethyl)-4-[2-[(2R,3S,4R,5S,6R)-3,4,5-trihydroxy-6-(hydroxymethyl)tetrahydropyran-2-yl]ethynyl]phenyl]ethynyl]-6-(hydroxymethyl)tetrahydropyran-3,4,5-triol] | 160 nM |
| Cc1cc(-c2cnc(-c3ccc([C@H]4O[C@H](CO)[C@@H](O)[C@H](O)[C@@H]4O)c(C)c3)cn2)ccc1[C@H]1O[C@H](CO)[C@@H](O)[C@H](O)[C@@H]1O [Compound 153, (2R,3S,4R,5S,6R)-2-(hydroxymethyl)-6-[2-methyl-4-[5-[3-methyl-4-[(2R,3S,4R,5S,6R)-3,4,5-trihydroxy-6-(hydroxymethyl)tetrahydropyran-2-yl]phenyl]pyrazin-2-yl]phenyl]tetrahydropyran-3,4,5-triol] | 92 nM |
| O=C(c1cnccn1)c1c(C#C[C@H]2O[C@H](CO)[C@@H](O)[C@H](O)[C@@H]2O)ccc2c1C1(CCNCC1)c1cc(C#C[C@H]3O[C@H](CO)[C@@H](O)[C@H](O)[C@@H]3O)ccc1-2 [Compound 236, [2,7-bis[2-[(2R,3S,4R,5S,6R)-3,4,5-trihydroxy-6-(hydroxymethyl)tetrahydropyran-2-yl]ethynyl]spiro[fluorene-9,4piperidine]-1yl]-pyrazin-2-yl-methanone] | 0.5 nM |
| Cc1cc(-c2ccc([C@H]3O[C@H](CO)[C@@H](O)[C@H](O)[C@@H]3O)c(C)c2)ccc1[C@H]1O[C@H](CO)[C@@H](O)[C@H](O)[C@@H]1O [Compound 68] | 7.7 nM |
| OC[C@H]1O[C@H](C#Cc2ccc(C#C[C@H]3O[C@H](CO)[C@@H](O)[C@H](O)[C@@H]3O)c3nsnc23)[C@@H](O)[C@@H](O)[C@@H]1O [Compound 131, (2R,3S,4R,5S,6R)-2-(hydroxymethyl)-6-[2-[4-[2-[(2R,3S,4R,5S,6R)-3,4,5-trihydroxy-6-(hydroxymethyl)tetrahydropyran-2-yl]ethynyl]-2,1,3-benzothiadiazol-7-yl]ethynyl]tetrahydropyran-3,4,5-triol] | 128 nM |
| CCc1cc(C#C[C@H]2O[C@H](CO)[C@@H](O)[C@H](O)[C@@H]2O)cc(CC)c1C#C[C@H]1O[C@H](CO)[C@@H](O)[C@H](O)[C@@H]1O [Compound 73] | 21 nM |
| CC1(O)c2cc(C#C[C@H]3O[C@H](CO)[C@@H](O)[C@H](O)[C@@H]3O)ccc2-c2ccc(C#C[C@H]3O[C@H](CO)[C@@H](O)[C@H](O)[C@@H]3O)cc21 [Compound 115, (2R,3S,4R,5S,6R)-2-(hydroxymethyl)-6-[2-[9-hydroxy-9-methyl-7-[2-[(2R,3S,4R,5S,6R)-3,4,5-trihydroxy-6-(hydroxymethyl)tetrahydropyran-2-yl]ethynyl]fluoren-2-yl]ethynyl]tetrahydropyran-3,4,5-triol] | 3.9 nM |
| N#CC1(C(=O)c2c(C#C[C@H]3O[C@H](CO)[C@@H](O)[C@H](O)[C@@H]3O)ccc3c2C2(CCNCC2)c2cc(C#C[C@H]4O[C@H](CO)[C@@H](O)[C@H](O)[C@@H]4O)ccc2-3)CC1 [Compound 230, 1-[2,7-bis[2-[(2R,3S,4R,5S,6R)-3,4,5-trihydroxy-6-(hydroxymethyl)tetrahydropyran-2-yl]ethynyl]spiro[fluorene-9,4piperidine]-1carbonyl]cyclopropanecarbonitrile] | 0.16 nM |
